US10881110B2, “Herbicidal compositions comprising isoxazolo[5,4-b]pyridines” (BASF SE, priority 2014, dated 2021)

Experiments:
Assay in all cases: greenhouse post-emergence herbicidal test
[1] = test system: IPOHE; assay type: in vivo, Ipomoea hederacea; set-up: key to herbicidal activity against IPOHE found: rating on a scale from 0 to 100; conditions: post emergence, 6 days after treatment
Outline: (§1)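 Herbicidal activity scored on a 0 (no damage) to 100 (plants destroyed) scale, usually 20 days after water-based spraying of 1–15 cm plants grown in loamy sand at 10-25 °C or 20-35 °C depending on species. Components were applied from 10% emulsion concentrates; Colby's E=X+Y−(X·Y/100) gives the additive expectation.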

[2] = test system: KCHSC; assay type: in vivo, Kochia scoparia; set-up: key to herbicidal activity against KCHSC found: rating on a scale from 0 to 100; conditions: post emergence, 6 days after treatment
Outline: as §1

[3] = test system: POLAV; assay type: in vivo, Polygonum aviculare; set-up: key: rating on a scale from 0 to 100; conditions: 6 days after treatment
Description: (§2) The culture containers used were plastic pots containing medium loamy sand with approximately 4.6% of humus and 69.9% sand as substrate. The seeds of the test plants were sown separately for each species.
(§3) For the post-emergence treatment, the test plants were grown to a plant height of from 1 to 15 cm, depending on the plant habit, and only then treated with the active compounds which had been suspended or emulsified in water. To this end, the test plants were either sown directly, and grown in the same containers, or they were first grown separately as seedlings and transplanted into the test containers a few days prior to treatment.
(§4) Depending on the species, the plants were kept at 10-25° C. and 20-35° C., respectively.
(§5) The test period extended over 1 to 3 weeks. During this time, the plants were tended and their response to the individual treatments was evaluated 20 days after treatment except mentioned otherwise.
(§6) Evaluation was carried out using a scale from 0 to 100. 100 means no emergence of the plants, or complete destruction of at least the above-ground parts, and 0 means no damage or normal course of growth.
(§7) The respective stated components A and B, and, if appropriate, C, were formulated as a 10% by weight strength emulsion concentrate and, with addition of the amount of solvent system, introduced into the spray liquor used for applying the active compound. In the examples, the solvent used was water.
(§8) In the examples below, using the method of S. R. Colby (1967) “Calculating synergistic and antagonistic responses of herbicide combinations”, Weeds 15, p. 22 ff., the value E, which is expected if the activity of the individual active compounds is only additive, was calculated. E=X+Y−(X·Y/100)

[4] = test system: SORVU; assay type: in vivo; conditions: 6 days after treatment
[5] = test system: GALAP; assay type: in vivo, Galium aparine; set-up: key to herbicidal activity against GALAP found: rating on a scale from 0 to 100; conditions: post emergence, 6 days after treatment, g/ha a.i.: I.1 62.5
Outline: as §1

[6] = test system: ABUTH; assay type: in vivo, Abutilon theophrast; set-up: key to herbicidal activity against ABUTH found: rating on a scale from 0 to 100; conditions: post emergence, 6 days after treatment, g/ha a.i.: I.1 31.25
Outline: (§9)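 Each species was sown separately, grown to a height of 1 to 15 cm and then sprayed with water-dispersed components A, B and where relevant C. Growth conditions were 10-25° C or 20-35° C, and percent damage was recorded at 20 days.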

[7] = test system: STEME; assay type: in vivo, Stellaria media; set-up: key: scale 0 to 100; conditions: 6 days after treatment, g/ha a.i.: I.1 31.25, B.96 35, mixture 31.25+35
Outline: as §9

[8] = test system: SASKR; assay type: in vivo, Salsola kali; set-up: key: scale 0 to 100; conditions: 6 days after treatment
Description: as §2, §3, §4, §5, §6, §7, §8

[9] = test system: VIOAR; assay type: in vivo, Viola arvensis; set-up: key to herbicidal activity against VIOAR found / herbicidal activity against VIOLA found: rating on a scale from 0 to 100; conditions: post emergence, 6 days after treatment
Outline: as §1

[10] = test system: POLPE; assay type: in vivo, Persicaria maculosa; set-up: key: scale 0 to 100; conditions: 6 days after treatment, g/ha a.i.: I.1 31.25, B.96 35, mixture 31.25+35
Description: as §2, §3, §4, §5, §6, §7, §8

[11] = test system: CONAR; assay type: in vivo, Convolvulus arvensis; set-up: key: rating on a scale from 0 to 100; conditions: 6 days after treatment
Outline: as §9

[12] = test system: POLCO; assay type: in vivo, Polygonum convolvulus; set-up: key to herbicidal activity against POLCO found: rating on a scale from 0 to 100; conditions: post emergence, 6 days after treatment
Outline: as §1

[13] = test system: CHEAL; assay type: in vivo, Chenopodium album; conditions: a.i. g/ha: I.1 20.8, B.192 62.5, 20 days after treatment
Outline: as §9

[14] = test system: AMARE; assay type: in vivo, Amaranthus retroflexus; conditions: a.i. g/ha: I.1 20.8, B.192 62.5, 20 days after treatment
Description: as §2, §3, §4, §5, §6, §7, §8

[15] = test system: AMBEL; assay type: in vivo, Ambrosia artemisiifolia; conditions: a.i. g/ha: I.1 20.8, B.192 62.5, 20 days after treatment
Outline: as §9

[16] = test system: SETVI; assay type: in vivo, Setaria viridis; conditions: a.i. g/ha: I.1 20.8, B.192 62.5, 20 days after treatment
Description: as §2, §3, §4, §5
Evaluation was carried out using a scale from 0 to 100. […]
In the examples below, using the method of S. R. Colby (1967) “Calculating synergistic and antagonistic responses of herbicide combinations”, Weeds 15, p. 22 ff., the value E, which is expected if the activity of the individual active compounds is only additive, was calculated. […]

[17] = test system: MATCH; assay type: in vivo, Matricaria recutita; conditions: post emergence
Outline: as §9

[18] = test system: ERICA; assay type: in vivo, Conyza canadensis; conditions: post emergence; 6 days after treatment; g/ha a.i.: I.1 125; naptalam 50; mixture 125+50
Outline: as §9

[19] = g/ha a.i.: I.1 31.25, B.96 35, mixture 31.25+35
[20] = g/ha a.i.: I.1 31.25, B.96 70, mixture 31.25+70
[21] = g/ha a.i.: I.1 31.25, B.96 140, mixture 31.25+140
[22] = g/ha a.i.: I.1 62.5, B.96 140, mixture 62.5+140
[23] = g/ha a.i.: I.1 62.5, B.96 35, mixture 62.5+35
[24] = g/ha a.i.: I.1 62.5, B.96 70, mixture 62.5+70
[25] = g/ha a.i.: I.1 31.25, naptalam 100, mixture 31.25+100
[26] = g/ha a.i.: I.1 31.25, naptalam 200, mixture 31.25+200
[27] = g/ha a.i.: I.1 31.25, naptalam 50, mixture 31.25+50
[28] = g/ha a.i.: I.1 62.5, naptalam 50, mixture 62.5+50
[29] = g/ha a.i.: I.1 62.5, naptalam 100, mixture 62.5+100
[30] = g/ha a.i.: I.1 62.5, naptalam 200, mixture 62.5+200

`CS(=O)(=O)c1ccc(C(=O)C2=C(Sc3ccccc3)C3CCC(C3)C2=O)c(Cl)c1` (stereo not drawn) [B.96, benzobicyclon] was tested, and the “herbicidal activity against IPOHE found” value [1, 19] was 70, the “herbicidal activity against IPOHE found” value [1, 20] was 70 and the “herbicidal activity against IPOHE found” value [1, 21] was 70. The “herbicidal activity against IPOHE found” value [1, 22] was 70, the “herbicidal activity against KCHSC found” value [2, 19] was 35 and the “herbicidal activity against KCHSC found” value [2, 20] was 40. The “herbicidal activity against KCHSC found” value [2, 21] was 55, the “herbicidal activity against KCHSC found” value [2, 23] was 35 and the “herbicidal activity against KCHSC found” value [2, 24] was 40. For the same compound, the “herbicidal activity against POLAV found” value [3, 24] was 70, the “herbicidal activity against POLAV found” value [3, 22] was 70 and the “herbicidal activity against SORVU found” value [4, 21] was 60. The “herbicidal activity against GALAP found” value ([5]; B.96 70, mixture 62.5+70) was 75, the “herbicidal activity against GALAP found” value ([5]; B.96 140, mixture 62.5+140) was 80 and the “herbicidal activity against ABUTH found” value ([6]; B.96 35, mixture 31.25+35) was 80. For the same compound, the “herbicidal activity against ABUTH found” value ([6]; B.96 70, mixture 31.25+70) was 85, the “herbicidal activity against STEME found” value [7] was 85 and the “herbicidal activity against SASKR found” value [8, 22] was 65. For the same compound, the “herbicidal activity against VIOAR found” value [9, 19] was 65, the “herbicidal activity against VIOAR found” value [9, 20] was 65 and the “herbicidal activity against VIOAR found” value [9, 21] was 65. The “herbicidal activity against VIOAR found” value [9, 23] was 65, the “herbicidal activity against VIOAR found” value [9, 24] was 65 and the “herbicidal activity against VIOAR found” value [9, 22] was 65. For the same compound, the “herbicidal activity against POLPE found” value [10] was 85, the “herbicidal activity against CONAR found” value [11, 22] was 75 and the “herbicidal activity against POLCO found” value [12, 20] was 70. The “herbicidal activity against POLCO found” value [12, 21] was 80, the “herbicidal activity against POLCO found” value [12, 24] was 70 and the “herbicidal activity against POLCO found” value [12, 22] was 80.

In the case of `COC(=O)Nc1cccc(OC(=O)Nc2cccc(C)c2)c1` [B.192, phenmedipham], the “herbicidal activity against CHEAL found” value [13] is reported as 50%, the “herbicidal activity against AMARE found” value [14] is reported as 35% and the “herbicidal activity against AMBEL found” value [15] is reported as 90%. For the same compound, the “herbicidal activity against SETVI found” value [16] was 65% and the “herbicidal activity against MATCH found” value ([17]; a.i. g/ha: I.1 20.8, B.192 62.5, 20 days after treatment) was 50%.

With `O=C(O)c1ccccc1C(=O)Nc1cccc2ccccc12` [naptalam] the “herbicidal activity against KCHSC found” value [2, 25] was 85, the “herbicidal activity against KCHSC found” value [2, 26] was 85 and the “herbicidal activity against ERICA found” value [18] was 80. For the same compound, the “herbicidal activity against POLAV found” value [3, 27] was 70, the “herbicidal activity against POLAV found” value [3, 26] was 75 and the “herbicidal activity against POLAV found” value [3, 28] was 70. The “herbicidal activity against POLAV found” value [3, 29] was 75, the “herbicidal activity against POLAV found” value [3, 30] was 75 and the “herbicidal activity against SORVU found” value [4, 30] was 50. The “herbicidal activity against ABUTH found” value ([6]; naptalam 100, mixture 31.25+100) was 85, the “herbicidal activity against SASKR found” value [8, 26] was 80 and the “herbicidal activity against SASKR found” value [8, 28] was 70. For the same compound, the “herbicidal activity against SASKR found” value [8, 30] was 80, the “herbicidal activity against VIOAR found” value [9, 26] was 70 and the “herbicidal activity against VIOAR found” value [9, 29] was 65. For the same compound, the “herbicidal activity against VIOAR found” value [9, 30] was 70, the “herbicidal activity against MATCH found” value ([17]; 6 days after treatment, g/ha a.i.: I.1 31.25, naptalam 50, mixture 31.25+50) was 30 and the “herbicidal activity against MATCH found” value ([17]; 6 days after treatment, g/ha a.i.: I.1 31.25, naptalam 100, mixture 31.25+100) was 65. The “herbicidal activity against MATCH found” value ([17]; 6 days after treatment, g/ha a.i.: I.1 62.5, naptalam 50, mixture 62.5+50) was 30, the “herbicidal activity against CONAR found” value [11, 27] was 80 and the “herbicidal activity against CONAR found” value [11, 25] was 80. The “herbicidal activity against CONAR found” value [11, 26] was 80, the “herbicidal activity against CONAR found” value ([11]; g/ha a.i.: I.1 125, naptalam 100, mixture 125+100) was 80 and the “herbicidal activity against POLCO found” value [12, 27] was 75. The “herbicidal activity against POLCO found” value [12, 28] was 75.
